Laboratory results reported in US12509462B2, “3-(phenylsulfonyl)-[1,2,3]triazolo[1,5A]quinazolin-5(4H)-one derivatives” (BIOVERSYS AG, priority 2018, dated 2025).
Converted amounts (≈) assume the structure as drawn.

Legend:
MRSA (USA300 isolate) = test: Hemolysis Assay I (exotoxin-mediated lysis of rabbit red blood cells by culture supernatant); format: cell-based, Staphylococcus aureus; conditions: 30/10/3.3/1.1/0.37 μM compound, values at OD600 of 0.75
psmα = format: cell-based, Staphylococcus aureus
[1] = test system: Staphylococcus aureus MRSA strain (USA300 isolate); test: Hemolysis Assay II (exotoxin-mediated lysis of rabbit red blood cells by culture filtrate); format: cell-based; conditions: Erythrocyte; for minimal effective concentration / IC95: 18 h; for minimal effective concentration: absorbance <2× the average of the complete inhibition control, read-out: Hemolysis assay II MEC (minimal effective concentration); for IC95: read-out: Hemolysis assay II IC95; for IC50: 18 h culture in CA-MHB, rabbit red blood cells
RNAIII = format: cell-based, Staphylococcus aureus; conditions: 10 μM compound, two hours, MRSA (USA300 isolate), normalized to rpoD
MRSA = test: MIC by broth microdilution in CA-MHB (CLSI); conditions: Staphylococcus aureus, 18 h, read-out: MIC on MRSA
Method: Minimal inhibitory concentrations (MIC) were determined by broth microdilution method in cation-adjusted Mueller-Hinton (CA-MHB) broth according to the CLSI guideline. From an overnight culture plate, cells were resuspended in 0.9% (w/v) saline solution and bacterial inoculum was prepared in CA-MHB with 5×10^5 CFU/ml. Compounds were two-fold serially diluted in CA-MHB and 10 μL of this 10× concentrated samples were added into the 96-well plate. 90 μL of bacterial suspension was finally added to the compounds. Plates were covered and incubated without shaking at 35° C. for 18 hours. Every experiment contained an antibiotic as quality control. MIC was determined visually as the lowest concentration of a compound that prevents visible growth of the bacteria and the plates were scanned for documentation.

HepG2 = conditions: human, 48 h
[2] = target: AgrAc (C-terminal domain of AgrA) (Staphylococcus aureus, UniProt P0A0I7); format: binding; conditions: 15N-AgrAc 100 μM, 1.6 mM compound
Sequence of AgrAc (C-terminal domain of AgrA) (P0A0I7 143-238): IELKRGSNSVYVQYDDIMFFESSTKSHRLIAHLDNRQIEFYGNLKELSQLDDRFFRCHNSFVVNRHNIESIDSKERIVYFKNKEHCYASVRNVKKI
From the text: 2D ^1H,^15N HSQC spectra were acquired at 298 K on a Bruker Avance IIIHD 600 MHz NMR spectrometer, equipped with a cryogenic triple resonance probe (Bruker, Karlsruhe, Germany). The proton chemical shifts were referenced using the methyl signal of sodium 3-trimethylsillyl-[2,2,3,3-d4]-propionate at 0 ppm. Spectra were processed with the Bruker TopSpin software package 3.5 and analyzed with the Sparky software. Assignments of AgrAc were deduced from the Biological Magnetic Resonance Bank (BMRB) entry 18598. Chemical shifts are reported in parts per million (δ) downfield from the internal standard tetramethylsilane (TMS). […]
For each sample tested, 400 μL of 15N-AgrAc @ […] in [50 mM NaPi pH6.3; 100 mM NaCl 3 mM THP; 5% D20; + TMSP] were mixed with 13 μL of the stock solution of the compound (dissolved in DMSO-d6). […] The samples were analysed on the 600 MHz spectrometer with the sample changer. […]
To produce ^15N-labeled C-terminal domain of AgrA (AgrAc), Escherichia coli BL21(DE3) cells were grown in a M9-based semi-rich medium: M9 medium supplemented with [^15N]—NH4Cl (1.5 g/liter), unlabeled D-glucose (4 g/liter), Isogro-^15N Powder-Growth medium (1 g/liter, 10%; Sigma-Aldrich). […] Elution of AgrAc was performed with a sharp gradient of imidazole (0-400 mM) and the fractions were analyzed by SDS-PAGE (4-20%). […] Protein concentration was estimated based on its UV absorbance at 280 nm.

S. aureus [3] = conditions: cited from earlier work
MRSA USA300 type strain = conditions: mice infected with a MRSA USA300 type strain, applied multiple times; cited from earlier work
red blood cell (RBC) = conditions: cited from earlier work
S. aureus [4] = conditions: cited from earlier work; remark: listed apart in the source
[5] = Staphylococcus aureus, Erythrocyte

Structure (SMILES)	IC50 (MRSA (USA300 isolate))	IC50 (MRSA (USA300 isolate); [5])	Downregulation of psmα expression at 10 μM (psmα)	minimal effective concentration [1]	IC95 [1]	IC50 [1]	Downregulation of RNAIII expression at 10 μM (RNAIII)	MIC (MRSA)	LD50 HepG2 (HepG2)	Chemical shift perturbations upon binding to AgrAc [2]	Resistance after multiple passages (S. aureus [3])	Abscess size and dermo necrosis (MRSA USA300 type strain)	Exotoxin-induced red blood cell (RBC) lysis (red blood cell (RBC))	Viability of S. aureus (S. aureus [4])
COc1ccc2c(=O)[nH]c3c(S(=O)(=O)c4ccc(C)cc4Cl)nnn3c2c1 [Compound 12, 3-(2-chloro-4-methyl-phenyl)sulfonyl-8-methoxy-4H-triazolo[1,5-a]quinazolin-5-one]	1300 nM	~1000 nM	++ (++ downregulation>100-fold (2 log10))	3 µg/mL	2.75 µg/mL (≈ 6.79 µM)	0.85 µg/mL (≈ 2.1 µM)	++ (++ downregulation>100-fold (2 log10))	≥ 100 µM	>=100 μM					
COc1ccc2c(=O)[nH]c3c(S(=O)(=O)c4ccc(C)cc4C)nnn3c2c1 [Compound 5, 3-(2,4-dimethylphenyl)sulfonyl-8-methoxy-4H-triazolo[1,5-a]quinazolin-5-one]		6000 nM	++ (++ downregulation>100-fold (2 log10))	6 µg/mL	11.7 µg/mL (≈ 30.3 µM)	2.05 µg/mL (≈ 5.33 µM)	+ (+ downregulation>10-fold (1 log10))	≥ 100 µM	>=100 μM					
Cc1ccc(S(=O)(=O)c2nnn3c2[nH]c(=O)c2ccccc23)c(C)c1 [Compound 34, 3-(2,4-dimethylphenyl)sulfonyl-4H-triazolo[1,5-a]quinazolin-5-one]		5000 nM	++ (++ downregulation>100-fold (2 log10))	4 µg/mL	3.2 µg/mL (≈ 9.03 µM)	0.9 µg/mL (≈ 2.54 µM)	++ (++ downregulation>100-fold (2 log10))	≥ 100 µM	>=100 μM	clearly show an interaction				
Cc1ccc(S(=O)(=O)c2nnn3c2[nH]c(=O)c2ccc(Cl)cc23)c(C)c1 [Compound 3, 8-chloro-3-(2,4-dimethylphenyl)sulfonyl-4H-triazolo[1,5-a]quinazolin-5-one]		5000 nM	++ (++ downregulation>100-fold (2 log10))	4 µg/mL	3.45 µg/mL (≈ 8.87 µM)	1.65 µg/mL (≈ 4.24 µM)	++ (++ downregulation>100-fold (2 log10))	≥ 100 µM	>=100 μM					
COc1ccc2c(=O)[nH]c3c(S(=O)(=O)c4ccc(C)cc4Br)nnn3c2c1 [Compound 18, 3-(2-bromo-4-methyl-phenyl)sulfonyl-8-methoxy-4H-triazolo[1,5-a]quinazolin-5-one]	800 nM	~1000 nM	++ (++ downregulation>100-fold (2 log10))	3 µg/mL	2.75 µg/mL (≈ 6.12 µM)	0.95 µg/mL (≈ 2.11 µM)	++ (++ downregulation>100-fold (2 log10))	≥ 100 µM	>=100 μM					
CC(C)c1ccc(S(=O)(=O)c2nnn3c2nc(O)c2ccccc23)cc1 [Savirin, reference compound]		15000 nM	+ (key: 0=downregulation between 0 and 10-fold; + downregulation>10-fold (1 log10); ++ downregulation>100-fold (2 log10))	8 µg/mL	7.8 µg/mL (≈ 21.2 µM)	2.6 µg/mL (≈ 7.06 µM)	0 (0=downregulation between 0 and 10-fold)	≥ 100 µM	>=100 μM		No resistance was developed	significant reduction	inhibited	without affecting viability
COc1ccc2c(=O)[nH]c3c(S(=O)(=O)c4ccc(C)cc4C(F)(F)F)nnn3c2c1 [Compound 26, 8-methoxy-3-[4-methyl-2-(trifluoromethyl)phenyl]sulfonyl-4H-triazolo[1,5-a]quinazolin-5-one]	700 nM	~1000 nM	++ (++ downregulation>100-fold (2 log10))	6 µg/mL	4.15 µg/mL (≈ 9.47 µM)	1 µg/mL (≈ 2.28 µM)	++ (++ downregulation>100-fold (2 log10))	≥ 100 µM	>=100 μM					
